One experiment concerns Wheat. Briefly: Whole plant screen for plant growth regulator activity, wheat (WW). The experiment is classed as in vivo, Wheat (Timmo). The following applies: for G = Greening effect / I = Interligular or internodal length reduction / R = Retardation / T = Tillering or side shooting: WW, 4000 ppm (4 kg/ha), visual score after 2-6 weeks; for T = Tillering or side shooting: * = decrease in tillering. The method, then:
(§1) Compounds 1 to 3 in Table 1 were tested for plant growth regulator activity against five species for various growth effects relevant to plant growth regulation.
(§2) The plant species used in this screen are presented in Table II with the leaf stage at which they were sprayed. Each chemical was applied at 4000 ppm (4 kg/ha in a 1000 l/ha field volume) using a tracksprayer and a SS8004E (Teejet) nozzle.
(§3) After spray the plants were grown in a glasshouse with 25° C. day/22° C. night temperatures and supplementary lighting was supplied when necessary (from mercury vapour lamps), to provide a 16 hour photoperiod. The exception to this were the temperate cereals, wheat and barley which were grown in 16° C. day/13° C. night temperatures.
(§4) After 2-6 weeks in the glasshouse, depending on the time of year, the plants were visually assessed for morphological characteristics. Formulation blanks were used as controls to assess the plants.
(§5) Additional compounds in Table I were tested for plant growth regulator activity using the method of Example 60 except that Tomato was included in the test as an additional species. Tomato, Ailsa Craig, was grown in a single 3 inch pot in peat and treated at the 2 to 21/2 leaves growth stage. The results were presented in Table IV in which Tomato is indicated by the code TO and the Key is otherwise as for Table III.

A further experiment deals with Tomato. Briefly: Whole plant screen for plant growth regulator activity, tomato (TO). Format: in vivo, Tomato (Ailsa Craig). Conditions: 4000 ppm (4 kg/ha), visual score after 2-6 weeks. The method, then:
as §2, §3, §4, §5
An astrisk (*) after a score under "T" (tillering) indicated a decrease in tillering.

The next experiment concerns Barley. Briefly: Whole plant screen for plant growth regulator activity, barley (BR). Format: in vivo, Barley (Atem). The following applies: BR, 4000 ppm (4 kg/ha), visual score after 2-6 weeks; for T = Tillering or side shooting: * = decrease in tillering. The method, then:
as §1, §2, §3, §4, §5

Marks after values point to notes of the source that are not given here.

On to `CCCCCCCC(O)(c1cncnc1)C(C)C` (stereo not drawn) [Compound 26], for which, in the experiment on Wheat, the “G = Greening effect” value is recorded as 1 (10-30%), the “I = Interligular or internodal length reduction” value was 1 (10-30%) and the “R = Retardation” value is 2 (31-60%). In the experiment with Tomato, the “G = Greening effect” value is given as 1 (10-30%), the “I = Interligular or internodal length reduction” value is recorded as 1 (10-30%) and the “R = Retardation” value is given as 2 (31-60%). In the experiment with Barley, the “T = Tillering or side shooting” value was 2 (31-60%).

Turning to `CCCCC(O)(c1cncnc1)C(C)(C)C` (stereo not drawn) [Compound 35], in the experiment on Wheat (4000 ppm), the “A = Apical damage” value is 2*. Besides, in the experiment with Tomato, the “I = Interligular or internodal length reduction” value is on record as 2 (31-60%) and the “R = Retardation” value was 2 (31-60%). Further, the “T = Tillering or side shooting” value in the experiment on Barley was 3 (61-100%).

As to `CCC(Cl)CC#CC(O)(c1cncnc1)C(C)(C)C` (stereo not drawn) [Compound 38], in the experiment on Wheat, the “G = Greening effect” value is 2 (31-60%), the “I = Interligular or internodal length reduction” value is 3 (61-100%), the “R = Retardation” value is given as 2 (31-60%) and the “T = Tillering or side shooting” value is reported as 1 (10-30%). In the experiment with Tomato, the “G = Greening effect” value is given as 2 (31-60%), the “I = Interligular or internodal length reduction” value is reported as 3 (61-100%) and the “R = Retardation” value is on record as 3 (61-100%). In the experiment with Barley, the “G = Greening effect” value was 3 (61-100%), the “I = Interligular or internodal length reduction” value is listed as 3 (61-100%), the “R = Retardation” value was 3 (61-100%) and the “T = Tillering or side shooting” value is given as 3 (61-100%).

For `CC(C)CC#CC(O)(c1cncnc1)C1CC1` (stereo not drawn) [Compound 56], in the experiment with Wheat, the “G = Greening effect” value is on record as 2 (31-60%), the “I = Interligular or internodal length reduction” value is 3 (61-100%), the “R = Retardation” value was 2 (31-60%) and the “T = Tillering or side shooting” value was 1 (10-30%). In the experiment with Tomato, the “G = Greening effect” value is recorded as 1 (10-30%), the “I = Interligular or internodal length reduction” value was 1 (10-30%) and the “R = Retardation” value is 1 (10-30%). Further, in the experiment with Barley, the “G = Greening effect” value is recorded as 3 (61-100%), the “I = Interligular or internodal length reduction” value is on record as 3 (61-100%), the “R = Retardation” value is 3 (61-100%) and the “T = Tillering or side shooting” value was 3 (61-100%).

Take `CCCCCCC#CC(O)(c1cncnc1)C(C)(C)C` (stereo not drawn) [Compound 33]: in the experiment with Wheat, the “G = Greening effect” value is recorded as 1 (10-30%) and the “I = Interligular or internodal length reduction” value is recorded as 1 (10-30%). In the experiment on Tomato, the “G = Greening effect” value is 1 (10-30%), the “I = Interligular or internodal length reduction” value is 1 (10-30%) and the “R = Retardation” value was 2 (31-60%). Besides, the “T = Tillering or side shooting” value with Barley is 2 (31-60%).

For the compound `CC(C)C(O)(CC1CCCC1)c1cncnc1` (stereo not drawn) [Compound 27], in the experiment on Wheat, the “G = Greening effect” value was 2 (31-60%), the “I = Interligular or internodal length reduction” value is on record as 2 (31-60%) and the “R = Retardation” value was 2 (31-60%). Also, in the experiment with Tomato, the “G = Greening effect” value was 2 (31-60%), the “I = Interligular or internodal length reduction” value is 2 (31-60%) and the “R = Retardation” value is 2 (31-60%). The “T = Tillering or side shooting” value in the experiment on Barley is listed as 2*.

As to `CC(C)(C)C(O)(C#CCCCCCl)c1cncnc1` (stereo not drawn) [Compound 37], in the experiment on Wheat, the “G = Greening effect” value is recorded as 2 (31-60%), the “I = Interligular or internodal length reduction” value was 3 (61-100%), the “R = Retardation” value is 2 (31-60%) and the “T = Tillering or side shooting” value is given as 1 (10-30%). Moreover, in the experiment on Barley, the “G = Greening effect” value is given as 3 (61-100%), the “I = Interligular or internodal length reduction” value is given as 3 (61-100%), the “R = Retardation” value is 3 (61-100%) and the “T = Tillering or side shooting” value was 3 (61-100%).

For the origin of these results see US4875922A, “Pyrimidine derivatives” (Imperial Chemical Industries PLC, priority 1986, dated 1989).
